Source: patent US11724997B2, “Compounds and compositions for treating conditions associated with APJ receptor activity” (Annapurna Bio, Inc., priority 2018, dated 2023)

The compounds below were run against T1, APJ Receptor (Homo sapiens, UniProt P35414) (assay: APJ cAMP assay: inhibition of forskolin-stimulated cAMP, enzyme fragment complementation, in CHO-K1 cells stably expressing the APJ Receptor). Conditions: CHO-K1 cell line (DiscoverX) stably expressing APJ Receptor; EC80 forskolin; 30 minutes at 37° C.; read-out: APJ cAMP EC50 Potency range.
T1 sequence (P35414 1-380): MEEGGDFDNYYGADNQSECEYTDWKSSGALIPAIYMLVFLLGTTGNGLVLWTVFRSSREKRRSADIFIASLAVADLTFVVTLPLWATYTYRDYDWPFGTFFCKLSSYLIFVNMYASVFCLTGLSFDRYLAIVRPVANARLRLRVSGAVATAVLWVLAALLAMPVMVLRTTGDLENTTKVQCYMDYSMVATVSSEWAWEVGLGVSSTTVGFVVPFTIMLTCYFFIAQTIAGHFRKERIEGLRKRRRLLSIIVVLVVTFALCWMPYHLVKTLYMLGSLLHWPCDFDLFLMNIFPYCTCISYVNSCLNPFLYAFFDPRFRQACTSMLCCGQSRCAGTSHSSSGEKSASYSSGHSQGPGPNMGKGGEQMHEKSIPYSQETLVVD
Type: cell-based
Source text: Activation of APJ receptor is known to inhibit forskolin-stimulated cyclic AMP (cAMP) production in cells in a pertussis toxin-sensitive manner which indicates primary coupling to the GαI subunit of the G protein heterotrimeric complex. In addition to signaling through G protein and inhibition of cAMP, APJ receptor activation also results in β-arrestin recruitment, receptor internalization and activation of extracellular-regulated kinases (ERKs).
In order to optimize functional activity directed toward Gi coupling we utilized a CHO-K1 cell line developed by DiscoverX stably expressing the APJ Receptor. Cells expressing APJR receptor were plated in a 384-well microtiter plates and incubated overnight at 37° C. with 5% CO2 to allow the cells to attach and grow. Media was then aspirated from the cells and replaced with 15 uL 2:1 Hanks Balanced Salt Solution (HBSS)/10 mM Hepes. cAMP XS+ Ab reagent. Five microliters (5 uL) of previously generated compound sample stocks at 4× final concentration in assay buffer containing 4×EC80 forskolin were then added to the cells and allowed to incubate at 37° C. for 30 minutes.
After incubation the assay signal was generated using a technology termed enzyme fragment complementation (EFC). In EFC the enzyme B-galactosidase is split into two complementary portions (EA and ED). The fragment ED is fused to cAMP and in the assay format competes with endogenous cAMP for binding to a cAMP specific antibody. Activated B-Gal is formed when exogenous EA fragment binds to free ED-cAMP (not bound to cAMP specific antibody). Activated enzyme levels are detected through conversion of B-gal chemiluminescent substrate which generates a detectable luminescence signal and read on standard microtiter plate.
The methodology for detection of cAMP using EFC requires incubation with 20 uL of cAMP XS+ ED/CL lysis cocktail for one hour followed by incubation with 20 uL cAMP XS+ EA reagent for three hours at room temperature. Microplates were read following signal generation with a PerkinElmer Envision instrument utilizing chemiluminescent signal detection.
Compound activity was analyzed using CBIS data analysis suite (ChemInnovation, CA).
Percentage activity was calculated using the following formula: % Activity=[…]×(1−(mean RLU of test sample−mean RLU of Max control)/(mean RLU of vehicle control−mean RLU of Max control))
The biological activity of the exemplified compounds of this invention determined by the assay described above is shown in Table 1. The APJ cAMP EC50 potency ranges are as follows: A: EC50<1 nM; B: 1≤EC50<100 nM; and C: 100≤EC50<10,000 nM.

| EC50 [nM] | SMILES |
| --- | --- |
| 100 to 10000 | COc1cccc(OC)c1-n1c(C(=O)NS(=O)(=O)Cc2ncccn2)nnc1-c1cc(C)ccn1 [Example 25, 4-(2,6-Dimethoxyphenyl)-5-(4-methylpyridin-2-yl)-N-((pyrimidin-2-ylmethyl)sulfonyl)-4H-1,2,4-triazole-3-carboxamide] |
| < 1 | CCOc1cccc(-c2nnc(C(=O)NS(=O)(=O)Cc3ncc(OC)cn3)n2-c2c(OC)cccc2OC)n1 [Example 44, 4-(2,6-Dimethoxyphenyl)-5-(6-ethoxypyridin-2-yl)-N-(((5-methoxypyrimidin-2-yl)methyl)sulfonyl)-4H-1,2,4-triazole-3-carboxamide] |
| 1 to 100 | CCn1ccc(-c2nnc(C(=O)NS(=O)(=O)Cc3ccccc3)n2-c2c(OC)cccc2OC)n1 [Example 5, N-(benzylsulfonyl)-4-(2,6-dimethoxyphenyl)-5-(1-ethyl-1H-pyrazol-3-yl)-4H-1,2,4-triazole-3-carboxamide] |
| 1 to 100 | CCOc1cccc(-c2nnc(C(=O)NS(C)(=O)=O)n2-c2c(OC)cccc2OC)n1 [Example 9, 4-(2,6-Dimethoxyphenyl)-5-(6-ethoxypyridin-2-yl)-N-(methylsulfonyl)-4H-1,2,4-triazole-3-carboxamide] |
| < 1 | COc1cccc(-c2nnc(C(=O)NS(=O)(=O)Cc3ccccn3)n2-c2c(OC)cccc2OC)n1 [Example 28, 4-(2,6-Dimethoxyphenyl)-5-(6-methoxypyridin-2-yl)-N-((pyridin-2-ylmethyl)sulfonyl)-4H-1,2,4-triazole-3-carboxamide] |
| 100 to 10000 | COc1ccn(-c2nnc(C(=O)NS(=O)(=O)Cc3ccccc3)n2-c2c(OC)cccc2OC)n1 [Example 10, N-(enzylsulfonyl)-4-(2,6-dimethoxyphenyl)-5-(3-methoxy-1H-pyrazol-1-yl)-4H-1,2,4-triazole-3-carboxamide] |
| 100 to 10000 | COc1cccc(OC)c1-n1c(C(=O)NS(=O)(=O)Cc2ccccc2)nnc1-c1nc(C2CC2)n[nH]1 [Example 65, N-(benzylsulfonyl)-5-cyclopropyl-4′-(2,6-dimethoxyphenyl)-2H,4′H-[3,3′-bi(1,2,4-triazole)]-5′-carboxamide] |
| 1 to 100 | COc1cccc(-c2nnc(C(=O)NS(=O)(=O)[C@H](C)c3ccccc3)n2-c2c(OC)cccc2OC)n1 (single isomer, unassigned) [Example 33] |
| 100 to 10000 | COc1cccc(OC)c1-n1c(C(=O)NS(=O)(=O)Cc2ncccn2)nnc1-c1cncc(C)c1 [Example 59, 4-(2,6-Dimethoxyphenyl)-5-(5-methylpyridin-3-yl)-N-((pyrimidin-2-ylmethyl)sulfonyl)-4H-1,2,4-triazole-3-carboxamide] |
| < 1 | COc1cccc(-c2nnc(C(=O)NS(=O)(=O)Cc3ncc(C)cn3)n2-c2c(OC)cccc2OC)n1 [Example 27, 4-(2,6-Dimethoxyphenyl)-5-(6-methoxypyridin-2-yl)-N-(((5-methylpyrimidin-2-yl)methyl)sulfonyl)-4H-1,2,4-triazole-3-carboxamide] |
| < 1 | CCOc1cccc(-c2nnc(C(=O)NS(=O)(=O)CCc3cccnc3)n2-c2c(OC)cccc2OC)n1 [Example 50, 4-(2,6-Dimethoxyphenyl)-5-(6-ethoxypyridin-2-yl)-N-((2-(pyridin-3-yl)ethyl)sulfonyl)-4H-1,2,4-triazole-3-carboxamide] |
| 1 to 100 | COc1cccc(-c2nnc(C(=O)NS(=O)(=O)Cc3cncnc3)n2-c2c(OC)cccc2OC)n1 [Example 36, 4-(2,6-Dimethoxyphenyl)-5-(6-methoxypyridin-2-yl)-N-((pyrimidin-5-ylmethyl)sulfonyl)-4H-1,2,4-triazole-3-carboxamide] |
